Source: ChEMBL document CHEMBL5042510, “Structure-Guided Discovery of Aminoquinazolines as Brain-Penetrant and Selective LRRK2 Inhibitors” (J Med Chem, 2022)
In brackets after ≈: the same amount, converted by molar mass.

Columns and labels:
rat Mdr1a (P-gp) [1] = test: Efflux ratio of apparent permeability across basolateral to apical side over apical to basolateral side in rat Mdr1a-transfected pig LLC-PK1 cells at 0.1 to 1 uM measured after 3 hrs by LC/MS/MS analysis; type: ADME, cell-based, Sus scrofa; settings: dose 0.1-1 µM
[2] = In vivo inhibition of LRRK2 in CD rat assessed as reduction in phosphorylation at Ser935 residue in striatum at 30 mg/kg, po measured after 2 hrs by MSD assay; type: functional
[3] = Toxicity in rat assessed as elevation of PXR gene expression at 10 to 75 mg/kg, po bid administered for 4 days; type: organism-based; settings: in vivo, 96 h, dose 10-75 mg/kg, time 4 day
[4] = Inhibition of adenosine transporter (unknown origin); set-up: species or system Homo sapiens
[5] = Intrinsic clearance in Wistar Han rat at 2 mg/kg, iv by LC-MS/MS analysis; type: ADME, organism-based; settings: in vivo
[6] = MRT in Rhesus monkey at 3 mg/kg, iv by LC-MS/MS analysis; type: ADME, organism-based, Macaca mulatta; settings: in vivo
mouse Bcrp [7] = test: Efflux ratio of apparent permeability across basolateral to apical over apical to basolateral side in mouse Bcrp-transfected dog MDCK-II cells at 0.1 to 1 uM measured after 3 hrs by LC/MS/MS analysis; type: ADME, cell-based, Canis lupus familiaris; settings: dose 0.1-1 µM
Salmonella typhimurium [8] = test: Mutagenicity in Salmonella typhimurium TA100 at 30 to 5000 ug incubated for 48 hrs in presence of liver S9 fraction by AMES test; type: toxicity, organism-based, Salmonella enterica subsp. enterica serovar Typhimurium; settings: s9, 48 h, dose 30-5000 µg
[9] = target: Leucine-rich repeat serine/threonine-protein kinase 2 (Homo sapiens) (UniProt Q5S007); test: Ex vivo inhibition of LRRK2 in human PBMC assessed as unbound concentration required for reduction in LRRK2 phosphorylation at Ser935 residue incubated for 90 mins by MSD assay; type: cell-based
[10] = Toxicity in rat assessed as induction of liver injury at 40 to 400 mg/kg, po qd administered for 4 days; type: organism-based; settings: in vivo, 96 h, dose 40-400 mg/kg, time 4 day
CYP1A1 = test: Toxicity in rat assessed as fold induction of CYP1A1 transcriptional activity in liver at 10 to 75 mg/kg, po bid administered for 4 days relative to control; type: organism-based; settings: dose 10-75 mg/kg, time 4 day, read-out: FC
[11] = Oral bioavailability in Rhesus monkey at 2 mg/kg by LC-MS/MS analysis; type: ADME, organism-based, Macaca mulatta; settings: in vivo
[12] = MRT in Wistar Han rat at 2 mg/kg, iv by LC-MS/MS analysis; type: ADME, organism-based; settings: in vivo
[13] = Unbound fraction in CD rat brain at 1 to 100 mg/kg, po measured after 120 mins by LC/MS/MS analysis; type: ADME, organism-based; settings: in vivo, 2 h, dose 1-100 mg/kg
[14] = target: Mitogen-activated protein kinase 3 (Homo sapiens, UniProt P27361); test: Inhibition of ERK1 (unknown origin)
[15] = Cardiotoxicity in guinea pig assessed as increase in QTc level at 157X unbound EM infused via iv consecutively for 20 mins; type: toxicity, organism-based, Cavia porcellus; settings: in vivo
[16] = Unbound brain-to-plasma concentration ratio in rat at 10 mg/kg, po qd for 4 days by LC/MS/MS analysis; type: ADME, organism-based; settings: brain and plasma (unbound), time 4 day, read-out: K(p,uu,brain)
[17] = Thermodynamic solubility of the compound in FaSSIF measured after 24 hrs by reverse phase UPLC analysis; type: physicochemical; settings: read-out: Therm_solubility
[18] = In vivo inhibition of LRRK2 in CD rat assessed as reduction in phosphorylation at Ser935 residue in striatum at 1 mg/kg, po measured after 2 hrs by MSD assay; type: functional
[19] = Intrinsic clearance in Rhesus monkey at 3 mg/kg, iv by LC-MS/MS analysis; type: ADME, organism-based, Macaca mulatta; settings: in vivo
[20] = Intrinsic clearance in rat hepatocytes at 0.3 uM incubated for 90 mins by LC/MS/MS analysis; type: ADME, cell-based, Hepatocyte; settings: read-out: CLH
Salmonella typhimurium [21] = test: Mutagenicity in Salmonella typhimurium TA98 at 30 to 5000 ug incubated for 48 hrs in presence of liver S9 fraction by AMES test; type: toxicity, organism-based, Salmonella enterica subsp. enterica serovar Typhimurium; settings: s9, 48 h, dose 30-5000 µg
[22] = In vivo inhibition of LRRK2 in CD rat assessed as reduction in phosphorylation at Ser935 residue in striatum at 3 mg/kg, po measured after 2 hrs by MSD assay; type: functional
[23] = Intrinsic clearance in Beagle dog at 1 mg/kg, iv by LC-MS/MS analysis; type: ADME, organism-based, Canis lupus familiaris; settings: in vivo
[24] = Unbound brain-to-plasma concentration ratio in rat at 2.5 uM incubated for 4 hrs by equilibrium dialysis method; type: ADME, cell-free; settings: brain and plasma (unbound), read-out: K(p,uu,brain)
GSTA5 = test: Toxicity in rat assessed as fold increase in GSTA5 transcriptional activity in liver at 75 mg/kg, po bid administered for 4 days relative to control; type: organism-based; settings: time 4 day, read-out: FC
[25] = Cardiotoxicity in telemetered Wistar Han rat assessed as NOAEL at 30 mg/kg, po; type: toxicity, organism-based; settings: in vivo
mouse Bcrp [26] = test: Apparent permeability in mouse Bcrp-transfected dog MDCK-II cells at 0.1 to 1 uM measured after 3 hrs by LC/MS/MS analysis; type: ADME, cell-based, Canis lupus familiaris; settings: dose 0.1-1 µM
Substance-P receptor = Substance-P receptor (Homo sapiens, UniProt P25103); test: Inhibition of tachykinin NK1 receptor (unknown origin)
rat Mdr1a (P-gp) [27] = test: Apparent permeability from apical to basolateral side in rat Mdr1a-transfected pig LLC-PK1 cells at 0.1 to 1 uM measured after 3 hrs by LC/MS/MS analysis; type: ADME, cell-based, Sus scrofa; settings: dose 0.1-1 µM
[28] = Toxicity in rat assessed as reduction in weight gain at 150 mg/kg, po qd administered for 4 days; type: organism-based; settings: in vivo, 96 h, time 4 day
[29] = Dissociation constant, pKa of the compound; type: physicochemical
[30] = Toxicity in rat bone marrow at 40 to 400 mg/kg, po qd administered for 4 days by micronucleus assay; type: organism-based; settings: in vivo, 96 h, dose 40-400 mg/kg, time 4 day
[31] = target: Voltage-gated inwardly rectifying potassium channel KCNH2 (Homo sapiens, UniProt Q12809); test: Inhibition of human ERG by voltage clamp assay; type: toxicity
[32] = Cardiotoxicity in telemetered Wistar Han rat assessed as elevation of systolic blood pressure at 100 mg/kg, po; type: toxicity, organism-based; settings: in vivo
[33] = Genotoxicity in CHO-WBL cells incubated for 3 hrs in presence of liver S9 extract by invitro micronucleus test; type: toxicity, Cricetulus griseus; settings: chinese hamster, s9, 3 h
[34] = Cardiotoxicity in telemetered Wistar Han rat assessed as elevation of diastolic blood pressure at 100 mg/kg, po; type: toxicity, organism-based; settings: in vivo
[35] = In vivo inhibition of LRRK2 in CD rat assessed as reduction in phosphorylation at Ser935 residue in striatum at 100 mg/kg, po measured after 2 hrs by MSD assay; type: functional
[36] = Intrinsic clearance in human hepatocytes at 0.3 uM incubated for 90 mins by LC/MS/MS analysis; type: ADME, cell-based, Hepatocyte; settings: read-out: CLH
[37] = Oral bioavailability in Beagle dog at 0.5 mg/kg by LC-MS/MS analysis; type: ADME, organism-based, Canis lupus familiaris; settings: in vivo
[38] = Toxicity in rat assessed as positive tissue transcriptional score at 40 to 400 mg/kg, po qd administered for 4 days; type: organism-based; settings: in vivo, 96 h, dose 40-400 mg/kg, time 4 day
[39] = Total plasma clearance in Wistar Han rat at 2 mg/kg, iv by LC-MS/MS analysis; type: ADME, organism-based

Chain of Voltage-gated inwardly rectifying potassium channel KCNH2 (Q12809 whole entry): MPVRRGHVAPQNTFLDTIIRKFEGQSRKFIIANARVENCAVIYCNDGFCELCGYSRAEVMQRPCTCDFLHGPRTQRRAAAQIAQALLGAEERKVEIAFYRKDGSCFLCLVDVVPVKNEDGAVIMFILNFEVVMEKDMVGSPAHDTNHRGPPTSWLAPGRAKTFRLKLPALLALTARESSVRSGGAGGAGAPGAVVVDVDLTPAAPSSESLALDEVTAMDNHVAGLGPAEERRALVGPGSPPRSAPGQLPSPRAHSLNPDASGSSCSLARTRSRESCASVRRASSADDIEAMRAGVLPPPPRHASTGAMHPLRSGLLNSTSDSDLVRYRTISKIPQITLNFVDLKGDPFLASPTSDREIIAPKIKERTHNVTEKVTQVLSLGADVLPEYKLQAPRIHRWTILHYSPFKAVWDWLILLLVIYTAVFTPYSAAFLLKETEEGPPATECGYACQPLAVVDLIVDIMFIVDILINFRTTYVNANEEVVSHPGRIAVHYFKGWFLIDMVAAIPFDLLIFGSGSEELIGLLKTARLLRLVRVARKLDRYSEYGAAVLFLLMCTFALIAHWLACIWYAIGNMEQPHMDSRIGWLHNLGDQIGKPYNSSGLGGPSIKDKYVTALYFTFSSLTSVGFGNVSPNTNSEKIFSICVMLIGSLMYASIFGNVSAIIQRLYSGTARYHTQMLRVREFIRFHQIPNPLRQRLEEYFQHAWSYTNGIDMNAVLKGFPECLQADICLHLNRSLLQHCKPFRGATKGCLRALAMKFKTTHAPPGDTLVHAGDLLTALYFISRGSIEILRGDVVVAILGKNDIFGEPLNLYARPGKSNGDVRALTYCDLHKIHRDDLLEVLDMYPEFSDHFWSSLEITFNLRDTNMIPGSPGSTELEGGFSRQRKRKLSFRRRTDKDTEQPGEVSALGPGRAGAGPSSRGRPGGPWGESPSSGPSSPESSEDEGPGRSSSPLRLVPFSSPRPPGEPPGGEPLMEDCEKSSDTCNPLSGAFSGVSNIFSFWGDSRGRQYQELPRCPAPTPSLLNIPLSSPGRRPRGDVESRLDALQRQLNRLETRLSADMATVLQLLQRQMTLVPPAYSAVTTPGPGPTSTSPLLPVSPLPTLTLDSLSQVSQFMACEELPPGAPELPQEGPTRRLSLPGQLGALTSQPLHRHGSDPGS
Chain of Leucine-rich repeat serine/threonine-protein kinase 2 (Homo sapiens) (Q5S007 whole entry): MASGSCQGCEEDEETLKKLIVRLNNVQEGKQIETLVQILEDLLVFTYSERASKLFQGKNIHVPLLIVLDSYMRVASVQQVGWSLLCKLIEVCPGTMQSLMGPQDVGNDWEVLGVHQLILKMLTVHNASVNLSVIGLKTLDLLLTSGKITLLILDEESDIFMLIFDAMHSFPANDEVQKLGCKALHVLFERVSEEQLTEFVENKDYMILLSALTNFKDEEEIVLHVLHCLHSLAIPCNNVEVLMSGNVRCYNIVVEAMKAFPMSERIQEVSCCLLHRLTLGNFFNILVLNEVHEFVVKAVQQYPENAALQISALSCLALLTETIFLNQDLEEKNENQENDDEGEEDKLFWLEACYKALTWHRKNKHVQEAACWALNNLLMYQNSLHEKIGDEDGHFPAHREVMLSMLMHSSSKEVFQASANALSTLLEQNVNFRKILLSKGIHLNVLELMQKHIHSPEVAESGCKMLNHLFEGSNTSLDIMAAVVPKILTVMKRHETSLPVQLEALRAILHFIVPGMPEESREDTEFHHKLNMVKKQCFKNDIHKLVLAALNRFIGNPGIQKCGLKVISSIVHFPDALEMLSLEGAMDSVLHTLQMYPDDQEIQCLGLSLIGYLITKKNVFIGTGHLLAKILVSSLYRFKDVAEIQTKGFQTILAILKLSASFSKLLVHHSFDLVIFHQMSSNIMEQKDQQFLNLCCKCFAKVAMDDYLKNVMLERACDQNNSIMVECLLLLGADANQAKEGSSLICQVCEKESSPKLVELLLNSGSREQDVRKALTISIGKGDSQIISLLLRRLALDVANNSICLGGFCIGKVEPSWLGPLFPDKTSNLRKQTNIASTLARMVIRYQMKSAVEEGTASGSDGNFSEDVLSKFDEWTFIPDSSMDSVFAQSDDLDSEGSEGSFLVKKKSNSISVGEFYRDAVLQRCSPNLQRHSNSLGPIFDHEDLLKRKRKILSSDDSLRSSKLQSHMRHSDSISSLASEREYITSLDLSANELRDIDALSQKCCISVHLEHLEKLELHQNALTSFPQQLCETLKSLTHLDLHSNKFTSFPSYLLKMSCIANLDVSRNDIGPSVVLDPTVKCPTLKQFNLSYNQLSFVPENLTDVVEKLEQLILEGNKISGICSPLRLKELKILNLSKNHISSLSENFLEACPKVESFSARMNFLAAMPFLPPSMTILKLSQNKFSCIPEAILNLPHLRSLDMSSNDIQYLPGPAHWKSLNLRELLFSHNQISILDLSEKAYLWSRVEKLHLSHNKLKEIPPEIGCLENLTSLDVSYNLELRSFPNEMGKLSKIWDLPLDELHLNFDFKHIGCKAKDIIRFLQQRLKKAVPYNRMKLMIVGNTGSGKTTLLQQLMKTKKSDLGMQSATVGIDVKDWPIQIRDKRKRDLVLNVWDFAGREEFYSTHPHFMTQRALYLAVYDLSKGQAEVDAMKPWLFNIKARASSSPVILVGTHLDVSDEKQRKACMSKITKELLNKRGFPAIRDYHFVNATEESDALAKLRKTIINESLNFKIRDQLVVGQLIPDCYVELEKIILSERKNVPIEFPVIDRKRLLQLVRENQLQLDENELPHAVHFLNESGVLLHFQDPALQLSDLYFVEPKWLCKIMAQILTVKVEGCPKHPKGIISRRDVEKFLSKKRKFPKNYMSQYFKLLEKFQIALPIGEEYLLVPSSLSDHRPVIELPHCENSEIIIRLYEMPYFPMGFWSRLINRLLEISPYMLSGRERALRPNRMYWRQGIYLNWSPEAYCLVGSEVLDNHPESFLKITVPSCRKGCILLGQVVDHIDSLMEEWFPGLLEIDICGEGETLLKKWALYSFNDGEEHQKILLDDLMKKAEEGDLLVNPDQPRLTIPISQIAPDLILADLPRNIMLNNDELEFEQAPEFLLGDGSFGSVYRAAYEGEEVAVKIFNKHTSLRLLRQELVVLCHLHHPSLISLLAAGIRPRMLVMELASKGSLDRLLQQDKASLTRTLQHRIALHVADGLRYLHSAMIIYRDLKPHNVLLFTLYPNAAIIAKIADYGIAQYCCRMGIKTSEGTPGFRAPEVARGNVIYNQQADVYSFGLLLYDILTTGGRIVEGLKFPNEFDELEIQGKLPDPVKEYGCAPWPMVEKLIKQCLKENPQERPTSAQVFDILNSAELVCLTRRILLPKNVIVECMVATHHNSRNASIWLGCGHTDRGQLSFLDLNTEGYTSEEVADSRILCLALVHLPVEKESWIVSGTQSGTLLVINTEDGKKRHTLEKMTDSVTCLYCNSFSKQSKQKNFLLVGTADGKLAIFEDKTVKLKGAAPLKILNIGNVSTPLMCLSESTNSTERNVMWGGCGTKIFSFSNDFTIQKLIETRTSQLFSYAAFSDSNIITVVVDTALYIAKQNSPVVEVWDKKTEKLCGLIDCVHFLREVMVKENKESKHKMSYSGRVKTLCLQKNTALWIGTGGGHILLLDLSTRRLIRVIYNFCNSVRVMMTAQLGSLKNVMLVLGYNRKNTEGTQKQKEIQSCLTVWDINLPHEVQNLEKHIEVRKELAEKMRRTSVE
Chain of Mitogen-activated protein kinase 3 (P27361 whole entry, the tested form may be a part): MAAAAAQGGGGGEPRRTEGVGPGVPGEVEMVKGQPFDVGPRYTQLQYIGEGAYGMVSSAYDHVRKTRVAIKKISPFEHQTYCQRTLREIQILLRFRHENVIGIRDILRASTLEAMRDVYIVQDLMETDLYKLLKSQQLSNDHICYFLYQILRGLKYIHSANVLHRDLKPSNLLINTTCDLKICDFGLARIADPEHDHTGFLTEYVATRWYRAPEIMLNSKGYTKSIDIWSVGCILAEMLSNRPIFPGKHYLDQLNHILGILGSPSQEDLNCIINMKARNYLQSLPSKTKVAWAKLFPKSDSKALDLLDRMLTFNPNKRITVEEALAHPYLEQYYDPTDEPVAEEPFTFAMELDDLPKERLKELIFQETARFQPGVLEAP
Chain of Substance-P receptor (P25103 whole entry): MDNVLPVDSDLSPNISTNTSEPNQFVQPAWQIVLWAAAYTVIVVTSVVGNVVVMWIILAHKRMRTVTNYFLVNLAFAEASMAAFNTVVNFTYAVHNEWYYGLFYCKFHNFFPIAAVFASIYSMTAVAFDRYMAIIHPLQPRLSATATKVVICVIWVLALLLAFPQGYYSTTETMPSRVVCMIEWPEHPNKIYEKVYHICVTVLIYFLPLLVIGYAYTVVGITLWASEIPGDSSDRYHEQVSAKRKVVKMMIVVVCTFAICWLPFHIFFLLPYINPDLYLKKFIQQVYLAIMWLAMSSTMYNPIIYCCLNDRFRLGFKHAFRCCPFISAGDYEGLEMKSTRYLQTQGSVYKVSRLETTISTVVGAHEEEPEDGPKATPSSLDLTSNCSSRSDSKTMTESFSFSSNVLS

efflux ratio at 3 h, up to 1 µM (rat Mdr1a (P-gp) [1]): 3.7 | IC50 [4]: 9.6 µM | CL [5]: 1278 mL/min/kg | MRT [6]: 5.2 h | efflux ratio at 3 h, up to 1 µM (mouse Bcrp [7]): 3.8 | fIC50 [9]: 1.9 nM | bioavailability [11]: 18% | MRT [12]: 3.9 h | Cp(f) [13]: 3.7 nM | IC50 [14]: 1.8 µM | Kp uu at 96 h [16]: 0.67 | solubility thermodynamic at 24 h [17]: 4 µg/mL (≈ 7.36 µM) | CL [19]: 1295 mL/min/kg | CLint scaled at 0.3 µM [20]: 248 mL/min/kg | CL [23]: 445 mL/min/kg | Kp uu at 4 h, 2.5 µM [24]: 0.36 | Papp at 3 h, up to 1 µM (mouse Bcrp [26]): 28 ×10⁻⁶ cm/s | IC50 (Substance-P receptor): 5.7 µM | Papp A→B at 3 h, up to 1 µM (rat Mdr1a (P-gp) [27]): 30 ×10⁻⁶ cm/s | pKa [29]: 5.65 | CLint scaled at 0.3 µM [36]: 116 mL/min/kg | bioavailability [37]: 79% | clearance [39]: 19 mL/min/kg
SMILES: O[C@H]1COC[C@H]1N1CC[C@@H](c2cc3nc(Nc4cnn([C@@H]5CC5(F)F)c4Cl)ncc3cc2Cl)[C@H](F)C1
inhibition in vivo at 30 mg/kg [2]: 92% | Activity [3]: Non-Toxic | Activity (Salmonella typhimurium [8]): Non-Toxic | Activity [10]: Non-Toxic | fold induction at 96 h (CYP1A1): 3 | Activity [15]: 2% | inhibition in vivo at 1 mg/kg [18]: 7% | Activity (Salmonella typhimurium [21]): Non-Toxic | inhibition in vivo at 3 mg/kg [22]: 32% | fold induction at 96 h (GSTA5): 5 | Activity [25]: Non-Toxic | Activity [28]: Toxic | Activity [30]: Non-Toxic | IC50 [31]: 9.7 µM | Activity [32]: Toxic | Activity [33]: Non-Toxic | Activity [34]: Toxic | inhibition in vivo at 100 mg/kg [35]: 97% | Activity [38]: Non-Toxic
